Experimental findings from patent US6376497B1, “Antifungal azole derivatives having a fluorinated vinyl group and process for preparing same” (Korea Research Institute of Chemical Technology, priority 1999, dated 2002) are described below.

The structures appear in SMILES notation. Values after ≈ are worked out from the molar mass of the structure shown.

Test in all cases: In vitro antifungal activity, microbroth dilution MIC
Common to all, as to type: cell-based
(Broth dilution looks for growth in wells or tubes with falling amounts of substance.)

For assay [1], the system named is Aspergillus furnigatus B. 19119. The conditions noted are these: A furnigatus B. 19119, RPMI-1640, 35° C., 4 to 48 hours. A digest of the protocol: (§1)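 Broth microdilution adapted from NCCLS M27, in RPMI-1640 with 0.165 M MOPS, pH 7.0. Yeast or mould inoculum at 2×10^3 CFU/ml was mixed 1:1 with DMSO-derived compound solutions (200 to 0.10 μg/ml before mixing) and incubated at 35 °C for 4 to 48 h. MIC was the concentration showing no growth.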

Assay [2] concerns Torulopsis glabrata B. 16205. The conditions noted are these: T. glabrata B. 16205, RPMI-1640, 35° C., 4 to 48 hours. A digest of the protocol:
as §1

Assay [3] concerns Cryptococcus neoformans A. 34144. As to conditions: Cry. neoformans A. 34144, RPMI-1640, 35° C., 4 to 48 hours. Summed up:
as §1

Assay [4] has as its system Trichophyton mentagrophytes B. 32663. As to conditions: T. mentagrophytes B. 32663, RPMI-1640, 35° C., 4 to 48 hours. A digest of the protocol:
as §1

The subject of assay [5] is Aspergillus niger A. 16404. As to conditions: A. niger A. 16404, RPMI-1640, 35° C., 4 to 48 hours. Summed up:
as §1

Assay [6] concerns Candida tropicalis A. 13803. The conditions noted are these: C. tropicalis A. 13803, RPMI-1640, 35° C., 4 to 48 hours. A digest of the protocol:
as §1

The subject of assay [7] is Candida albicans A. 10231. As to conditions: C. albicans A. 10231, RPMI-1640, 35° C., 4 to 48 hours. Summed up: as §1
Assay [8] deals with Candida albicans C1-2. The conditions noted are these: C. albicans C1-2, RPMI-1640, 35° C., 4 to 48 hours. Summed up: as §1
For assay [9], the system named is Candida krusei K. 11655. The conditions noted are these: C. krusei K. 11655, RPMI-1640, 35° C., 4 to 48 hours. A digest of the protocol: as §1
For assay [10], the system named is Cryptococcus neoformans B. 42419. As to conditions: Cry. neoformans B. 42419, RPMI-1640, 35° C., 4 to 48 hours. A digest of the protocol:
as §1

Assay [11] deals with Cryptococcus neoformans IFM. 40092. As to conditions: Cry. neoformans IFM. 40092, RPMI-1640, 35° C., 4 to 48 hours. A digest of the protocol:
as §1

The subject of assay [12] is Candida parapsitosis A. 7330. As to conditions: C. parapsitosis A. 7330, RPMI-1640, 35° C., 4 to 48 hours. A digest of the protocol: as §1
In assay [13] the test system is Candida pseudotropicalis K. 11658. As to conditions: C. pseudotropicalis K. 11658, RPMI-1640, 35° C., 4 to 48 hours. A digest of the protocol:
as §1

Assay [14] has as its system Trichophyton mentagrophytes A. 9129. The conditions noted are these: T. mentagrophytes A. 9129, RPMI-1640, 35° C., 4 to 48 hours. A digest of the protocol:
as §1

Assay [15] has as its system Candida albicans IFO. 1385. As to conditions: C. albicans IFO. 1385, RPMI-1640, 35° C., 4 to 48 hours. A digest of the protocol:
as §1

On to `FC(=Cc1cccc(Cl)c1)OCC1COC(Cn2ccnc2)(c2ccc(Cl)cc2Cl)O1` (stereo not drawn) [Ex. 13], for which the “Minimal inhibitory concentration (MIC)” value in assay [1] is 1.56 µg/mL (≈ 3.22 µM); in assay [2], 6.25 µg/mL (≈ 12.9 µM); in [3], 0.39 µg/mL (≈ 0.806 µM); in assay [4], “≦0.10 μg/ml”; in assay [5], 3.13 µg/mL (≈ 6.47 µM); in assay [6] it was 50.0 µg/mL (≈ 103 µM). Besides, the “Minimal inhibitory concentration (MIC)” value in [7] was 6.25 µg/mL (≈ 12.9 µM); in assay [8], 3.13 µg/mL (≈ 6.47 µM); in assay [9], 25.0 µg/mL (≈ 51.7 µM); in [10], 0.39 µg/mL (≈ 0.806 µM); in [11], “≦0.10 μg/ml”; in assay [12], 50.0 µg/mL (≈ 103 µM). Also, the figures for the “Minimal inhibitory concentration (MIC)” value in assay [13], in assay [14] and in assay [15] were 1.56 µg/mL (≈ 3.22 µM), 0.78 µg/mL (≈ 1.61 µM) and 0.39 µg/mL (≈ 0.806 µM), respectively.

In the case of `FC(=Cc1ccc(Cl)cc1)OCC1COC(Cn2ccnc2)(c2ccc(Cl)cc2Cl)O1` (stereo not drawn) [Ex. 14], the “Minimal inhibitory concentration (MIC)” value in assay [1] stood at 6.25 µg/mL (≈ 12.9 µM); in [2], 6.25 µg/mL (≈ 12.9 µM); in assay [3] it was 0.78 µg/mL (≈ 1.61 µM); in assay [4], 0.78 µg/mL (≈ 1.61 µM); in [5], 6.25 µg/mL (≈ 12.9 µM); in assay [6] it was 12.5 µg/mL (≈ 25.8 µM). In addition, the “Minimal inhibitory concentration (MIC)” value came out at 6.25 µg/mL (≈ 12.9 µM) in [7]; 12.5 µg/mL (≈ 25.8 µM) in assay [8]; 6.25 µg/mL (≈ 12.9 µM) in assay [9]; 0.78 µg/mL (≈ 1.61 µM) in [10]; 0.39 µg/mL (≈ 0.806 µM) in [11]; 12.5 µg/mL (≈ 25.8 µM) in [12]. In addition, the figures for the “Minimal inhibitory concentration (MIC)” value in assay [13], in assay [14] and in assay [15] were 3.13 µg/mL (≈ 6.47 µM), 1.56 µg/mL (≈ 3.22 µM) and 0.39 µg/mL (≈ 0.806 µM), respectively.

Take `FC(=Cc1cccc(F)c1)OCC1COC(Cn2ccnc2)(c2ccc(Cl)cc2Cl)O1` (stereo not drawn) [Ex. 15]: the “Minimal inhibitory concentration (MIC)” value in assay [1] was 0.78 µg/mL (≈ 1.67 µM); in assay [2], 3.13 µg/mL (≈ 6.7 µM); in [3], 0.20 µg/mL (≈ 0.428 µM); in [4], “≦0.10 μg/ml”; in assay [5], 1.56 µg/mL (≈ 3.34 µM); in assay [6], 25.0 µg/mL (≈ 53.5 µM). Also, the “Minimal inhibitory concentration (MIC)” value is 6.25 µg/mL (≈ 13.4 µM) in assay [7]; 3.13 µg/mL (≈ 6.7 µM) in [8]; 6.25 µg/mL (≈ 13.4 µM) in [9]; 0.20 µg/mL (≈ 0.428 µM) in assay [10]; “≦0.10 μg/ml” in assay [11]; 6.26 µg/mL (≈ 13.4 µM) in assay [12]. The “Minimal inhibitory concentration (MIC)” value is 3.13 µg/mL (≈ 6.7 µM) in assay [13], 0.39 µg/mL (≈ 0.835 µM) in assay [14] and “≦0.10 μg/ml” in assay [15].

For `FC(=Cc1ccc(F)cc1)OCC1COC(Cn2ccnc2)(c2ccc(Cl)cc2Cl)O1` (stereo not drawn) [Ex. 16], the “Minimal inhibitory concentration (MIC)” value is 3.13 µg/mL (≈ 6.7 µM) in assay [1]; 6.25 µg/mL (≈ 13.4 µM) in [2]; 1.56 µg/mL (≈ 3.34 µM) in assay [3]; 1.56 µg/mL (≈ 3.34 µM) in [4]; 3.13 µg/mL (≈ 6.7 µM) in [5]; 25.0 µg/mL (≈ 53.5 µM) in assay [6]. The “Minimal inhibitory concentration (MIC)” value in assay [7] is 12.5 µg/mL (≈ 26.7 µM); in assay [8] it was 6.25 µg/mL (≈ 13.4 µM); in [9], 6.25 µg/mL (≈ 13.4 µM); in assay [10], 1.56 µg/mL (≈ 3.34 µM); in [11], 0.39 µg/mL (≈ 0.835 µM); in assay [12] it was 6.25 µg/mL (≈ 13.4 µM). Moreover, the “Minimal inhibitory concentration (MIC)” value is 3.13 µg/mL (≈ 6.7 µM) in assay [13], 1.56 µg/mL (≈ 3.34 µM) in assay [14] and 0.78 µg/mL (≈ 1.67 µM) in assay [15].

As for `Cc1cc(C=C(F)OCC2COC(Cn3ccnc3)(c3ccc(Cl)cc3Cl)O2)ccc1Cl` (stereo not drawn) [Ex. 17], the “Minimal inhibitory concentration (MIC)” value came out at 6.25 µg/mL (≈ 12.6 µM) in [1]; 6.25 µg/mL (≈ 12.6 µM) in [2]; 1.56 µg/mL (≈ 3.13 µM) in assay [3]; 3.13 µg/mL (≈ 6.29 µM) in assay [4]; 12.5 µg/mL (≈ 25.1 µM) in assay [5]; 12.5 µg/mL (≈ 25.1 µM) in assay [6]. The “Minimal inhibitory concentration (MIC)” value in [7] turned out to be 12.5 µg/mL (≈ 25.1 µM); in assay [8] it was 12.5 µg/mL (≈ 25.1 µM); in assay [9], 12.5 µg/mL (≈ 25.1 µM); in [10], 1.56 µg/mL (≈ 3.13 µM); in assay [11] it was 0.20 µg/mL (≈ 0.402 µM); in assay [12] it was 50.0 µg/mL (≈ 100 µM). In addition, the “Minimal inhibitory concentration (MIC)” value in [13] was 6.25 µg/mL (≈ 12.6 µM); in assay [14], 12.5 µg/mL (≈ 25.1 µM); in assay [15], 0.78 µg/mL (≈ 1.57 µM).

Consider `Cc1cccc(C(=C(F)OCC2COC(Cn3ccnc3)(c3ccc(Cl)cc3Cl)O2)C(F)(F)F)c1` (stereo not drawn) [Ex. 20], for which the “Minimal inhibitory concentration (MIC)” value was 50.0 µg/mL (≈ 94.1 µM) in [1]; 12.5 µg/mL (≈ 23.5 µM) in assay [2]; 1.56 µg/mL (≈ 2.94 µM) in assay [3]; 6.25 µg/mL (≈ 11.8 µM) in assay [4]; 100 µg/mL (≈ 188 µM) in [5]; 25.0 µg/mL (≈ 47.1 µM) in [6]. Moreover, the “Minimal inhibitory concentration (MIC)” value is 6.25 µg/mL (≈ 11.8 µM) in [7]; 6.25 µg/mL (≈ 11.8 µM) in assay [8]; 100 µg/mL (≈ 188 µM) in assay [9]; 1.56 µg/mL (≈ 2.94 µM) in assay [10]; 0.39 µg/mL (≈ 0.734 µM) in assay [11]; above 100 µg/mL in assay [12]. The “Minimal inhibitory concentration (MIC)” value is 100 µg/mL (≈ 188 µM) in assay [13], 12.5 µg/mL (≈ 23.5 µM) in assay [14] and 0.78 µg/mL (≈ 1.47 µM) in assay [15].

For `Cc1ccc(C(=C(F)OCC2COC(Cn3ccnc3)(c3ccc(Cl)cc3Cl)O2)C(F)(F)F)cc1` (stereo not drawn) [Ex. 21], the “Minimal inhibitory concentration (MIC)” value worked out at 50.0 µg/mL (≈ 94.1 µM) in assay [1]; 12.5 µg/mL (≈ 23.5 µM) in [2]; 0.78 µg/mL (≈ 1.47 µM) in assay [3]; 6.25 µg/mL (≈ 11.8 µM) in assay [4]; 100 µg/mL (≈ 188 µM) in assay [5]; 25.0 µg/mL (≈ 47.1 µM) in assay [6]. The “Minimal inhibitory concentration (MIC)” value was 6.25 µg/mL (≈ 11.8 µM) in [7]; 6.25 µg/mL (≈ 11.8 µM) in [8]; above 100 µg/mL in [9]; 1.56 µg/mL (≈ 2.94 µM) in assay [10]; 0.39 µg/mL (≈ 0.734 µM) in [11]; above 100 µg/mL in [12]. Also, the figures for the “Minimal inhibitory concentration (MIC)” value in assay [13], in assay [14] and in assay [15] were 100 µg/mL (≈ 188 µM), 12.5 µg/mL (≈ 23.5 µM) and 0.78 µg/mL (≈ 1.47 µM), respectively.

With `CCc1ccc(C(=C(F)OCC2COC(Cn3ccnc3)(c3ccc(Cl)cc3Cl)O2)C(F)(F)F)cc1` (stereo not drawn) [Ex. 22], the “Minimal inhibitory concentration (MIC)” value in assay [1] is 50.0 µg/mL (≈ 91.7 µM); in [2], 25.0 µg/mL (≈ 45.8 µM); in [3], 1.56 µg/mL (≈ 2.86 µM); in assay [4] it was 12.5 µg/mL (≈ 22.9 µM); in [5] it was 100 µg/mL (≈ 183 µM); in assay [6], 25.0 µg/mL (≈ 45.8 µM). For the same compound, the “Minimal inhibitory concentration (MIC)” value is 6.25 µg/mL (≈ 11.5 µM) in assay [7]; 12.5 µg/mL (≈ 22.9 µM) in assay [8]; 100 µg/mL (≈ 183 µM) in assay [9]; 1.56 µg/mL (≈ 2.86 µM) in assay [10]; 0.78 µg/mL (≈ 1.43 µM) in assay [11]; above 100 µg/mL in assay [12]. For the same compound, the “Minimal inhibitory concentration (MIC)” value in assay [13] was determined as 100 µg/mL (≈ 183 µM); in [14], 25.0 µg/mL (≈ 45.8 µM); in [15], 0.78 µg/mL (≈ 1.43 µM).
